For assay [1], the target named is intracellular GCN2 (phosphorylation of the GCN2 substrate eIF2α) (Homo sapiens, UniProt Q9P2K8). The assay is described as follows: GCN2 cellular inhibition assay (AlphaScreen SureFire P-eIF2α Ser51, borrelidin-treated U2OS cells). Conditions: compounds of Formula II; biomarker assay, phosphorylated eIF2α Ser51 in borrelidin-treated U2OS cells. The class given is cell-based. In outline: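 Read-out: AlphaScreen SureFire phospho-eIF2α (Ser51) signal in U2OS lysates. Cells get 4-fold compound dilutions (top 40 μM final) plus 10 μM borrelidin, 1 h, 37 °C. Percent inhibition is relative to borrelidin-alone controls.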
intracellular GCN2 (phosphorylation of the GCN2 substrate eIF2α), sequence (Q9P2K8 whole entry): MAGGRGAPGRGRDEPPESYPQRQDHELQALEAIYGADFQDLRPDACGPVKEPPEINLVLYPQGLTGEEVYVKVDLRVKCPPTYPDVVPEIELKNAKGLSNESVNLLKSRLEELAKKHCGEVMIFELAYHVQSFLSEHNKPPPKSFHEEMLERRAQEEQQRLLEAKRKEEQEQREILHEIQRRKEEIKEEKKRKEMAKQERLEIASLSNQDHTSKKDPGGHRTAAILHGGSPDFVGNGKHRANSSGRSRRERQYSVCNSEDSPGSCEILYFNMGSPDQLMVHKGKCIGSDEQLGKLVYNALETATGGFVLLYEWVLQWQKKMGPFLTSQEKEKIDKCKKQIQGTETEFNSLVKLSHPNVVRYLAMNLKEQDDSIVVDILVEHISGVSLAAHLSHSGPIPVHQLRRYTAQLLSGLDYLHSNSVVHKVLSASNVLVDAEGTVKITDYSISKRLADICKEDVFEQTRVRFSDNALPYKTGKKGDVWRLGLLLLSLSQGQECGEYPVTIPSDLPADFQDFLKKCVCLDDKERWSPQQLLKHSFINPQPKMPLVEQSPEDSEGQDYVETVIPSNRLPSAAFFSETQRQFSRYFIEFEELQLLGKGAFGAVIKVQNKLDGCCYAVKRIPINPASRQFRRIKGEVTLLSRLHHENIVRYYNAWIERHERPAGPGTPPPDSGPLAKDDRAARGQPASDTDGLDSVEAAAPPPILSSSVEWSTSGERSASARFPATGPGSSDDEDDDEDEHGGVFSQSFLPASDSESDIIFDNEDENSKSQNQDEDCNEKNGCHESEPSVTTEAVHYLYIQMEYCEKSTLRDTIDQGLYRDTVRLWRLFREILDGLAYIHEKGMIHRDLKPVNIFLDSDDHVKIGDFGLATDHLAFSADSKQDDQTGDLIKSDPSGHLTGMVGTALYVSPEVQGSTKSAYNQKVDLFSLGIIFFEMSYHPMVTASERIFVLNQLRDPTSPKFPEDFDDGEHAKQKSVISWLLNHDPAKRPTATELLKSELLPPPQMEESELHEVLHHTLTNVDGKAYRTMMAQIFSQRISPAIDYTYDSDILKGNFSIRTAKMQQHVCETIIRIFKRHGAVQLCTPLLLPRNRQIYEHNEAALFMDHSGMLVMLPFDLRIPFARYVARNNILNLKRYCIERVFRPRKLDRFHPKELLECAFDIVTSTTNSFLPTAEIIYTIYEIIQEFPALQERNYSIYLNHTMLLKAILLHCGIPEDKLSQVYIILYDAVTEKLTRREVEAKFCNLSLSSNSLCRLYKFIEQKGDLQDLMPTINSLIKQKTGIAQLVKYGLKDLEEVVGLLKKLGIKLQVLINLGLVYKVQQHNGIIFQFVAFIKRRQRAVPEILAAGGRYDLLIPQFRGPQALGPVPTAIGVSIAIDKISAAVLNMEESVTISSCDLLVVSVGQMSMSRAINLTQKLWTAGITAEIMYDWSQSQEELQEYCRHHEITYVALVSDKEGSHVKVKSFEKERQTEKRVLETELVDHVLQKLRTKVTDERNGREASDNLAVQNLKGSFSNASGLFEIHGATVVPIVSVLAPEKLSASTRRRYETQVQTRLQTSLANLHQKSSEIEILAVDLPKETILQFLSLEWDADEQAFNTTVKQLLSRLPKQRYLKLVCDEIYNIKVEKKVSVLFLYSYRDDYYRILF
(In general: In Alpha technology, singlet oxygen from a donor bead excites a nearby acceptor bead.)

Another assay deals with GCN2 kinase (Homo sapiens, UniProt Q9P2K8). As to the kind of experiment: GCN2 enzyme inhibition assay (Transcreener ADP2 fluorescence polarization). The assay is classed as biochemical. Particulars: compounds of Formula II; 280 μM ATP, 4 nM GCN2 kinase. In outline: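 4 nM GCN2 + 200 μM (RS)7 + compound (0–8 μM), 10 min preinc.; start with ATP (280 μM final); 1 h, 25 °C; pH 7.5 Tris/NaCl/MgCl2/DTT; ADP FP readout; IC50, Ki(app) via tight-binding fit.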
GCN2 kinase, sequence (Q9P2K8 whole entry): as above
For orientation: In fluorescence polarisation assays a small probe gives low polarisation when free and higher when bound to something large.

The results in this text go back to patent publication US10988477B2 (Merck Patent GmbH, priority 2018, dated 2021).

Broadly, the IC50 is the concentration that inhibits the measured activity by half. A higher IC50 goes with a need for much substance. As a reminder, the Ki is a dissociation constant, usually derived from enzyme kinetics or from competition with a known ligand. A low value points to tighter binding.

As to `CC1CC(N=S(C)(C)=O)CN(c2cc(-c3cnc4ccc(C(F)F)nn34)ccn2)C1` (centres unmarked) [II-716, ((1-(4-(6-(Difluoromethyl)imidazo[1,2-b]pyridazin-3-yl)pyridin-2-yl)-5-methylpiperidin-3-yl)imino)dimethyl-λ^6-sulfanone], the IC50 in assay [1] was below 500 nM. For the same compound, the Ki at GCN2 kinase was below 10 nM.
Taken in the same sequence, the figures for `CC1CC(C(=O)O)C(C)N(c2cc(-c3cnc4ccc(C(F)(F)F)nn34)ncn2)C1` (centres unmarked) [II-721, 2,5-Dimethyl-1-[6-[6-(trifluoromethyl)imidazo[1,2-b]pyridazin-3-yl]pyrimidin-4-yl]piperidine-3-carboxylic acid] were 500 to 5000 nM and 10 to 1000 nM.
Taken in the same sequence, the figures for `CC1CC(N=S(C)(C)=O)CN(c2cc(-c3cnc4ccc(C(N)=O)nn34)ncn2)C1` (centres unmarked) [II-726, 3-(6-(3-((Dimethyl(oxo)-λ^6-sulfanylidene)amino)-5-methylpiperidin-1-yl)pyrimidin-4-yl)imidazo[1,2-b]pyridazine-6-carboxamide] were above 5000 nM and 10 to 1000 nM.
Taken in the same sequence, the figures for `NC(=O)c1ccc2ncc(-c3cc(N4CCN5C(=O)CCCC5C4)ncn3)n2n1` (centres unmarked) [II-727, 3-[6-(6-Oxo-3,4,7,8,9,9a-hexahydro-1H-pyrido[1,2-a]pyrazin-2-yl)pyrimidin-4-yl]imidazo[1,2-b]pyridazine-6-carboxamide] were above 5000 nM and 10 to 1000 nM.
Turning to `CC1CN(c2cc(-c3cnc4ccc(C(N)=O)nn34)ncn2)C(C)C(c2cn[nH]c2)N1` (centres unmarked) [II-728, 3-[6-[2,5-Dimethyl-3-(1H-pyrazol-4-yl)piperazin-1-yl]pyrimidin-4-yl]imidazo[1,2-b]pyridazine-6-carboxamide], the IC50 in assay [1] is above 5000 nM. Moreover, the Ki on GCN2 kinase was in the range of 10 to 1000 nM.
The matching figures for `CS(=O)(=O)NCC1CCCN(c2cc(-c3cnc4ccc(C(F)F)nn34)c(F)cn2)C1` (centres unmarked) [II-729, N-((1-(4-(6-(Difluoromethyl)imidazo[1,2-b]pyridazin-3-yl)-5-fluoropyridin-2-yl)piperidin-3-yl)methyl)methanesulfonamide]: 500 to 5000 nM and below 10 nM.
The matching figures for `CS(=O)(=O)NCC1CCCN(c2cc(-c3cnc4ccc(C(F)F)nn34)c(Cl)cn2)C1` (centres unmarked) [II-730, N-((1-(5-Chloro-4-(6-(difluoromethyl)imidazo[1,2-b]pyridazin-3-yl)pyridin-2-yl)piperidin-3-yl)methyl)methanesulfonamide]: 500 to 5000 nM and 10 to 1000 nM.
Taken in the same sequence, the figures for `CC(=O)N1CCN(c2cccc(-c3cnc4ccc(C(F)F)nn34)n2)CC1` [II-731, 1-(4-(6-(6-(difluoromethyl)imidazo[1,2-b]pyridazin-3-yl)pyridin-2-yl)piperazin-1-yl)ethan-1-one] were above 5000 nM and above 1000 nM.
For `CS(=O)(=O)NCC1CN(c2cc(-c3cnc4cccnn34)ccn2)CCO1` (centres unmarked) [II-732, N-((4-(4-(imidazo[1,2-b]pyridazin-3-yl)pyridin-2-yl)morpholin-2-yl)methyl)methanesulfonamide], the IC50 in assay [1] is above 5000 nM. This compound also had a Ki at GCN2 kinase above 1000 nM.
Taken in the same sequence, the figures for `Cc1cnc(N2CCCC(CNS(C)(=O)=O)C2)cc1-c1cnc2ccc(C(F)F)nn12` (centres unmarked) [II-733, N-((1-(4-(6-(difluoromethyl)imidazo[1,2-b]pyridazin-3-yl)-5-methylpyridin-2-yl)piperidin-3-yl)methyl)methanesulfonamide] were above 5000 nM and above 1000 nM.
Regarding `CC(=O)NC1CCN(c2cc(-c3cnc4ccc(-c5cccnc5)nn34)ccn2)CC1` [II-735, N-(1-(4-(6-(pyridin-3-yl)imidazo[1,2-b]pyridazin-3-yl)pyridin-2-yl)piperidin-4-yl)acetamide], the IC50 in assay [1] is above 5000 nM. This compound displayed an inhibition constant Ki at GCN2 kinase above 1000 nM.
Taken in the same sequence, the figures for `CC(=O)N1CCN(c2cc(-c3cnc4ccc(N5CCC(N)C5)nn34)ccn2)CC1` (centres unmarked) [II-736, 1-(4-(4-(6-(3-aminopyrrolidin-1-yl)imidazo[1,2-b]pyridazin-3-yl)pyridin-2-yl)piperazin-1-yl)ethan-1-one] were above 5000 nM and above 1000 nM.
Taken in the same sequence, the figures for `CC(=O)N1CCN(c2cc(-c3cnc4ccc(-c5cccnc5)nn34)ccn2)CC1` [II-737, 1-(4-(4-(6-(pyridin-3-yl)imidazo[1,2-b]pyridazin-3-yl)pyridin-2-yl)piperazin-1-yl)ethan-1-one] were above 5000 nM and above 1000 nM.
Taken in the same sequence, the figures for `CC(=O)N1CCN(c2cc(-c3cnc4ccc(N5CCOCC5)nn34)ccn2)CC1` [II-738, 1-(4-(4-(6-morpholinoimidazo[1,2-b]pyridazin-3-yl)pyridin-2-yl)piperazin-1-yl)ethan-1-one] were above 5000 nM and above 1000 nM.
As to `Cc1noc([C@@H]2CN(c3cc(-c4cnc5ccc(C(F)(F)F)nn45)ccn3)C[C@H](C)O2)n1` [II-739], the 50% inhibitory concentration (IC50) in assay [1] is below 500 nM. Further, at GCN2 kinase, the Ki is 10 to 1000 nM.
The matching figures for `FC(F)(F)c1ccc2ncc(-c3ccnc(N4CCCC(c5c[nH]cn5)C4)c3)n2n1` (centres unmarked) [II-740]: below 500 nM and below 10 nM.
In assay [1], `FC(F)(F)c1ccc2ncc(-c3ccnc(N4CCCC(c5c[nH]cn5)C4)c3)n2n1` (centres unmarked) [II-741] had an IC50 below 500 nM. The Ki at GCN2 kinase is below 10 nM.
As to `C[C@@H]1[C@H](CNS(C)(=O)=O)N(C2CC2)CCN1c1cc(-c2cnc3ccc(C(F)F)nn23)ncn1` [II-753, N-(((2S,3R)-1-cyclopropyl-4-(6-(6-(difluoromethyl)imidazo[1,2-b]pyridazin-3-yl)pyrimidin-4-yl)-3-methylpiperazin-2-yl)methyl)methanesulfonamide], the half-maximal inhibitory concentration (IC50) in assay [1] lay in the range of 500 to 5000 nM; against GCN2 kinase, 10 to 1000 nM.
Taken in the same sequence, the figures for `CC1CC(N=S(C)(C)=O)CN(c2cc(-c3cnc4ccc(C(F)(F)F)nn34)ncn2)C1` (centres unmarked) [II-757, dimethyl((5-methyl-1-(6-(6-(trifluoromethyl)imidazo[1,2-b]pyridazin-3-yl)pyrimidin-4-yl)piperidin-3-yl)imino)-16-sulfanone] were below 500 nM and 10 to 1000 nM.
Taken in the same sequence, the figures for `Cc1nn(C)cc1[C@@H]1CN(c2cc(-c3cnc4ccc(C(F)(F)F)nn34)ncn2)C[C@H](C)O1` [II-759, (2R,6S)-2-(1,3-dimethyl-1H-pyrazol-4-yl)-6-methyl-4-(6-(6-(trifluoromethyl)imidazo[1,2-b]pyridazin-3-yl)pyrimidin-4-yl)morpholine] were above 5000 nM and 10 to 1000 nM.
Taken in the same sequence, the figures for `Cc1[nH]ncc1C1CN(c2cc(-c3cnc4ccc(C(F)(F)F)nn34)ncn2)CC(C)O1` (centres unmarked) [II-762, 2-methyl-6-(5-methyl-1H-pyrazol-4-yl)-4-(6-(6-(trifluoromethyl)imidazo[1,2-b]pyridazin-3-yl)pyrimidin-4-yl)morpholine] were 500 to 5000 nM and 10 to 1000 nM.
On to `Cc1[nH]ncc1[C@H]1CN(c2cc(-c3cnc4ccc(C(F)(F)F)nn34)ncn2)C[C@H](C)O1` [II-765, (2S,6S)-2-methyl-6-(5-methyl-1H-pyrazol-4-yl)-4-(6-(6-(trifluoromethyl)imidazo[1,2-b]pyridazin-3-yl)pyrimidin-4-yl)morpholine], for which the values for the IC50 (in assay [1]; against GCN2 kinase) were above 5000 nM and 10 to 1000 nM, respectively.
